According to patent US20220332733A1, “MATERIAL FOR WAVELENGTH CONVERSION, WAVELENGTH CONVERSION MEMBER, LIGHT EMITTING DEVICE, AND COMPOUND USED FOR SAME” (FUJIFILM Corporation, priority 2021, published 2022):

Experiments:
Format in all cases: physicochemical
[1] = Solubility of compound in solvents or raw material monomers, visual; conditions: summary of Table 3
Method: The solubility in the following solvents or media A to G as raw material monomers of a resin was evaluated. The evaluation method is as follows: 0.1 ml of a solvent was added to […] of each compound to dissolve the compound, and the solubility was visually determined based on the following evaluation ranks. In this test, evaluation rank “B” or higher is an acceptable level.

[2] = Relative fluorescence intensity of fluorescent latex dispersion; conditions: for Relative Fluorescence Intensity: relative to 6 μmol/g of the same compound, at emission maximum wavelength, dispersion diluted 200 times; for fluorescence intensity of fluorescent latex as the compound amount is increased (in words): compared with comparative compound (1), summary of Table 1
Method: As latex particles, particles having an average particle diameter of 150 nm, which were prepared by polymerizing a mixture of styrene and an acrylic acid in a mass ratio of 9:1 in a state of being dispersed in water, were used. The average particle diameter was measured using a dynamic light scattering method using Zetasizer Nano ZS (trade name, manufactured by Malvern Panalytical Ltd.) based on the above-described measurement conditions. 5 mL of THF was added dropwise to 25 mL of the latex dispersion with a solid content of 2% (solid content mass: 500 mg) prepared as above, and the mixture was stirred for 10 minutes. 2.5 mL of a THF solution of a test compound (any one of the compound (1-1), the compound (1-2), the compound (2-1), or the comparative compound (1)) was added dropwise thereto for 15 minutes. In Table 1, μmol/g in the column of compound amount indicates the number of moles of the compound used with respect to 1 g of the solid content of the latex. Completion of the dropwise addition of the test compound was followed by stirring for 30 minutes and concentration under reduced pressure to remove THF. After that, the particles were precipitated by centrifugation, followed by addition of ultrapure water and redispersion to manufacture fluorescent latex dispersions Nos. 101 to 104, 201, 202, 301 to 303, and c11 to c14 with a concentration of solid contents of 2 mass %.
The relative fluorescence intensity of the fluorescent latex dispersion with a concentration of solid contents of 2 mass % manufactured as above at an emission maximum wavelength was evaluated. The evaluation was performed using a latex dispersion diluted 200 times with ultrapure water with the use of a fluorescence spectrophotometer RF-5300PC (trade name) manufactured by Shimadzu Corporation for measurement of the emission maximum wavelength and the fluorescence intensity at the emission maximum wavelength.
In the respective test compounds, based on the fluorescence intensity at the emission maximum wavelength with a compound amount of 6 μmol/g, fluorescence intensities at the emission maximum wavelength with other compound amounts were evaluated as the relative fluorescence intensity.

[3] = Absorption characteristics of compound (molar absorption coefficient, half-width) in chloroform; conditions: for Half-Width: at maximal absorption wavelength
Method: Using a spectrophotometer UV-3600 (trade name) manufactured by Shimadzu Corporation, a molar absorption coefficient ϵ (1/mol·cm) and a half-width at a maximal absorption wavelength were measured and evaluated based on the following evaluation ranks. The half-width means a width (distance) between two wavelengths showing half the intensity of the maximal value at the maximum absorption wavelength. In the table, the evaluation of the molar absorption coefficient ϵ is described in the column of ϵ. As a measurement solvent, chloroform was used.
In this test, a molar absorption coefficient at evaluation rank “B” or higher (S to B) is regarded as acceptable, and due to the fact that the half-width is preferably narrow from the viewpoint of an improvement of color reproducibility, a half-width at evaluation rank “A” or higher (S or A) is regarded as acceptable.

[4] = compound amount 24 μmol/g latex solids
[5] = compound amount 48 μmol/g latex solids
[6] = compound amount 100 μmol/g latex solids

SMILES	solubility in the solvent or raw material monomer (in words) [1]	Relative Fluorescence Intensity [2, 4]	Relative Fluorescence Intensity [2, 5]	Relative Fluorescence Intensity [2, 6]	ε (molar absorption coefficient at maximal absorption wavelength) [3]	Half-Width [3]	fluorescence intensity of fluorescent latex as the compound amount is increased (in words) [2]
CCOC(=O)C1=C(C)C2=C(c3cc(-c4ccc(C(C)(C)C)cc4)cc(-c4ccc(C(C)(C)C)cc4)c3)c3c(C)c(C(=O)OCC)c(C)n3[B-](F)(F)[N+]2=C1C [Comparative Compound (1), reference compound]	poor solubility	3 times as large as No. c11	5 times as large as No. c11	6 times as large as No. c11	D (less than 100,000)	S (equal to or less than 30 nm)	
CC1=C(C(=O)OC2C(C(C)(C)C)CC(C)CC2C(C)(C)C)C(N)=[N+]2C1=C(C)c1c(C)c(C(=O)OC3C(C(C)(C)C)CC(C)CC3C(C)(C)C)c(N)n1[B-]2(F)F (centres unmarked) [Compound (1-1)]	excellent solubility	4 times as large as No. 101	7 times as large as No. 101	12 times as large as No. 101	S (equal to or greater than 130,000)	S (equal to or less than 30 nm)	higher fluorescence intensity
CC1=C(C(=O)OC2C(C(C)(C)C)CC(C)CC2C(C)(C)C)C(N)=[N+]2C1=C(C)c1c(C)c(C(=O)OC3C(C(C)(C)C)CC(C)CC3C(C)(C)C)c(N)n1[B-]2(F)C(F)(F)F (centres unmarked) [Compound (2-1)]	excellent solubility		7 times as large as No. 301	12 times as large as No. 301	S (equal to or greater than 130,000)	S (equal to or less than 30 nm)	higher fluorescence intensity
CC1CC(C(C)(C)C)C(OC(=O)C2=C(c3ccccc3)C3=Cc4c(-c5ccccc5)c(C(=O)OC5C(C(C)(C)C)CC(C)CC5C(C)(C)C)c(N)n4[B-](F)(F)[N+]3=C2N)C(C(C)(C)C)C1 (centres unmarked) [Compound (1-2)]				10 times as large as No. 201	S (equal to or greater than 130,000)	A (equal to or greater than 31 nm and equal to or less than 35 nm)	higher fluorescence intensity
